This experiment has as its target T1, YjdL (Escherichia coli, UniProt P39276).
T1 construct: gene dtpC; pET28a-YjdL, His-tag vector, overexpressed in whole E. coli BL21-CodonPlus (DE3)-RIPL cells
T1 sequence (P39276 1-485): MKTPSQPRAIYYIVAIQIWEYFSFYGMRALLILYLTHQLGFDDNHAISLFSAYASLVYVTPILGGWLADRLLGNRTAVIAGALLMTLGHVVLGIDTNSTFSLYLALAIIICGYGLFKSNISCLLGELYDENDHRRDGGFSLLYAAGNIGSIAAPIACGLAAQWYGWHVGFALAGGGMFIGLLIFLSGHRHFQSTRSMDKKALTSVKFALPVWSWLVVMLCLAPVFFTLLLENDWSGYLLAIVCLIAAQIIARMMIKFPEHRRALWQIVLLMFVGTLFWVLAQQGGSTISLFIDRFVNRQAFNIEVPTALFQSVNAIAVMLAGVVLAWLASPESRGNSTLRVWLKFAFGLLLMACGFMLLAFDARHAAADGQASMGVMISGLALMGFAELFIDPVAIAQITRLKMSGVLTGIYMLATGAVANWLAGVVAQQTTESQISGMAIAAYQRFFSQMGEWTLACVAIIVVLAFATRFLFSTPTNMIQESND
As to the kind of experiment: fluorescent dipeptide uptake in E. coli expressing the protein. The class given is cell-based. The following applies: pH 6.5, 37 °C, 15-20 min; printed final 500 μM (1.5 μl of 20 mM in 100 μl); labelled compound.

In the case of `Cc1c(CC(=O)NCCCC[C@H](NC(=O)CCN)C(=O)O)c(=O)oc2cc(N)ccc12` [β-Ala-Lys-AMCA], the “fluorescent dipeptide uptake in E. coli expressing the protein” value is “Relative uptake of fluorescent dipeptide β-ALA-Lys-AMCA in E. coli induced (+IPTG)”.

The record behind these values is publication PMC6333907, “Oligopeptide Signaling through TbGPR89 Drives Trypanosome Quorum Sensing” (Cell, 2019).
